Counter-ions that a name gives are not always drawn. Like-named read-outs stand apart in the source and are kept apart here.
Legend:
[1] = Cell culture media unbound percentage and stability by rapid equilibrium dialysis (Example C); assay type: in vitro ADME; details: bovine, cell assay medium (RPMI-1640 with 10% fetal bovine serum), pH 7.4, rapid equilibrium dialysis, 4 hours at 37° C., read-out: Cell Culture Media Binding (% unbound)
How it was run: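 Compound spiked into cell culture medium at nominal 1 μM and dialysed against PBS (100 mM sodium phosphate + 150 mM NaCl, pH 7.4) by rapid equilibrium dialysis, triplicate, 4 h at 37° C with shaking. LC-MS/MS peak area ratios gave percent unbound (receiver/donor) and percent stability (240 min vs 0 min).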

[2] = biological target: T1, recombinant full-length WRN protein (1-1432) (Homo sapiens, UniProt Q14191); assay: WRN unwinding activity, fluorogenic 384-well assay (Example A); assay type: biochemical; details: WRN unwinding activity, 4 hr; Table 2; read-out: 4 hr UNW pIC50 (converted)
T1 construct: recombinant full-length WRN protein (1-1432)
How it was run: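 200 pM enzyme (2× stock) preincubated with compound 4 h at ambient temperature, then 200 μM ATP and 12 nM quenched TAMRA-labelled dsDNA (2× stocks) added for 60 min; EDTA-quenched. Buffer 25 mM Tris pH 8.0, 5 mM NaCl, 2 mM MgCl2. Fluorescence at 525/598 nm; pIC50 from four-parameter fit.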

[3] = system: SW48 human colorectal cancer cells (MSI-H cancer cells); assay: SW48 cell viability, CellTiter-Glo, 120 hours (Example B); details: Homo sapiens
[4] = system: SW48 human colorectal cancer cells; assay: Calculated free drug potency in SW48 cell assay, corrected with media free fraction (Example C); assay type: cell-based; details: Homo sapiens, SW48, SW48 pCC50 corrected with measured free fraction in cell assay media
How it was run: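 Compound spiked at nominal 1 μM into cell assay medium and dialysed against PBS (100 mM sodium phosphate, 150 mM NaCl, pH 7.4) by rapid equilibrium dialysis, 4 h, 37 °C, shaking. Percent unbound from LC-MS/MS peak area ratios (240 min vs 0 min); cell assay concentrations corrected by this free fraction.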

[5] = SW48, 120 h, read-out: SW48 pCC50, SW48 cell viability, 120 hours incubation (converted), Table 2
[6] = SW48, read-out: SW48 pCC50, measured potency from Example B, as repeated in Table 3 (converted)

T1 sequence (Q14191 whole entry): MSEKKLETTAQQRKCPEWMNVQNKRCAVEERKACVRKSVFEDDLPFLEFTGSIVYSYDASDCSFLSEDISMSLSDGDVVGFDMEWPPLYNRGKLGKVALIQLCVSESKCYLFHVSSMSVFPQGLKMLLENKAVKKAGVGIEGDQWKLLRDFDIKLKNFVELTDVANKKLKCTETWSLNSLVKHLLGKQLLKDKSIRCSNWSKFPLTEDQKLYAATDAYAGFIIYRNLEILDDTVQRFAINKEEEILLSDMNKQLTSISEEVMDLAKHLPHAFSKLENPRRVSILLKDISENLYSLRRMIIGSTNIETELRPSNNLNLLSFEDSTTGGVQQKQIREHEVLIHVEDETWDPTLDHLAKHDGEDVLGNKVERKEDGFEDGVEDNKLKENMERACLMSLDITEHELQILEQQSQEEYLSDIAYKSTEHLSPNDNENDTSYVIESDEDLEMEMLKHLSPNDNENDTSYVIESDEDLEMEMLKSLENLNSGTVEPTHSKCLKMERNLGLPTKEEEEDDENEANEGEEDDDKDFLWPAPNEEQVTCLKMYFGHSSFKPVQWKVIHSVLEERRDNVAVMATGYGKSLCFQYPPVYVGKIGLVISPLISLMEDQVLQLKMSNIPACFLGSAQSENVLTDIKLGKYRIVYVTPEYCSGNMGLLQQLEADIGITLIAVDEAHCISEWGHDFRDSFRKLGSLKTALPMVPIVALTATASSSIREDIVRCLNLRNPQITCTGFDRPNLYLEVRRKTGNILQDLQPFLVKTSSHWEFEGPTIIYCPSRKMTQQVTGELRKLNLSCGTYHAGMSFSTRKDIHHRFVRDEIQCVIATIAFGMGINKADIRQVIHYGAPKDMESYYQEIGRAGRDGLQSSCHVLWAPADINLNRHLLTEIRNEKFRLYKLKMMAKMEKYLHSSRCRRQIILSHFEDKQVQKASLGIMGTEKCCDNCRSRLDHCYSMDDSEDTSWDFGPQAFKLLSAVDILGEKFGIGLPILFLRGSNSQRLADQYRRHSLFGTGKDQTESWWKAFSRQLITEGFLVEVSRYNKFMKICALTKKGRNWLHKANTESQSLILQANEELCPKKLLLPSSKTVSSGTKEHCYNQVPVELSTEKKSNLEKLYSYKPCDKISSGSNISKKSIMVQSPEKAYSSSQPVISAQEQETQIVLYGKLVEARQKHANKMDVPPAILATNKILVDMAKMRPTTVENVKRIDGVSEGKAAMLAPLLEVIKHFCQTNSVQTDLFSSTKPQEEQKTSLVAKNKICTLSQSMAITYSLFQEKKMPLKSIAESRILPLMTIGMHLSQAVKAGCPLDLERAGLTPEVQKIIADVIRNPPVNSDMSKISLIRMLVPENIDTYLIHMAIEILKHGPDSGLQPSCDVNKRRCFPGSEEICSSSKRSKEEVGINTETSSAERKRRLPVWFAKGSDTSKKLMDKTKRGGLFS

Compound | fraction unbound at 4 h, 1 µM [1] | IC50 [2] [nM] | CC50 [3, 5] [nM] | CC50 [3, 6] [nM] | CC50 [4] [nM]
CN(c1ccc([C@H]2CCC[C@@H](C(=O)Nc3ccc(C(F)(F)F)cc3F)[C@@H]2C(=O)O)cc1)S(=O)(=O)c1cccc(C2CC2(F)F)c1 (stereo partly drawn) [Example 120, (1R,2S,6R)-2-(4-((3-(2,2-difluorocyclopropyl)-N-methylphenyl)sulfonamido)phenyl)-6-((2-fluoro-4-(trifluoromethyl)phenyl)carbamoyl)cyclohexane-1-carboxylic acid] | 0.0107 | 10 | 3160 | 3160 | 33.9
Cc1nc2cc(S(=O)(=O)N(C)c3ccc([C@@H]4CCC[C@H](COc5ccc(C(F)(F)F)cc5)[C@H]4C(=O)O)cc3)cc([C@@H]3CCCN(C)C3)c2n1C (single isomer, unassigned) [Example 211, formic acid salt] | 0.0208 | 2 | 3160 | 3160 | 66.1
Cc1nc2cc(S(=O)(=O)N(C)c3ccc([C@@H]4CC(F)(F)C[C@H](C(=O)Nc5ccc(C(F)(F)F)cc5F)[C@H]4C(=O)O)cc3)ccc2n1C (single isomer, unassigned) [Example 364] | 0.113 | 631 | 10000 |  | 1120
Cc1nc2cc(S(=O)(=O)N(C)c3ccc([C@H]4CCC[C@@H](C(=O)Nc5ccc(C(F)(F)F)cc5F)[C@@H]4C(=O)O)cc3)ccc2n1CCN [Example 277, (1R,2S,6R)-2-(4-((1-(2-aminoethyl)-N,2-dimethyl-1H-benzo[d]imidazole)-5-sulfonamido)phenyl)-6-((2-fluoro-4-(trifluoromethyl)phenyl)carbamoyl)cyclohexane-1-carboxylic acid] | 0.197 | 0.631 | 1580 | 1580 | 309
Cc1nc2cc(S(=O)(=O)N(C)c3ccc([C@H]4CCC[C@@H](C(=O)N[C@H]5CC[C@H](C(C)C)CC5)[C@@H]4C(=O)O)cc3)ccc2n1C [Example 180, (1R,2R,6S)-2-(((1r,4R)-4-isopropylcyclohexyl)carbamoyl)-6-(4-((N,1,2-trimethyl-1H-benzo[d]imidazole)-5-sulfonamido)phenyl)cyclohexane-1-carboxylic acid] | 0.0357 | 3.98 | 631 | 631 | 22.4
CN[C@H]1C[C@H](c2ccc(N(C)S(=O)(=O)c3ccc4c(c3)nc(C)n4C)cc2)[C@@H](C(=O)O)[C@H](C(=O)Nc2ccc(C(F)(F)F)cc2F)C1 (single isomer, unassigned) [Example 254] | 0.234 | 25.1 | 10000 |  | 2340
CN(c1ccc([C@H]2CCC[C@@H](C(=O)Nc3ccc(C(F)(F)F)cc3F)[C@@H]2C(=O)O)cc1)S(=O)(=O)c1ccccc1 [Example 109, (1R,2R,6S)-2-((2-fluoro-4-(trifluoromethyl)phenyl)carbamoyl)-6-(4-(N-methylphenylsulfonamido)phenyl)cyclohexane-1-carboxylic acid] | 0.0829 | 1 | 1260 | 1260 | 105
Cc1nc2cc(S(=O)(=O)N(C)c3ccc([C@H]4C[C@@H](N)C[C@@H](C(=O)Nc5ccc(C(F)(F)F)cc5F)[C@@H]4C(=O)O)cc3)ccc2n1C (stereo in doubt) [Example 301, rel-(1R,2R,4R,6S)-4-amino-2-((2-fluoro-4-(trifluoromethyl)phenyl)carbamoyl)-6-(4-((N,1,2-trimethyl-1H-benzo[d]imidazole)-5-sulfonamido)phenyl)cyclohexane-1-carboxylic acid] | 0.406 | 1.58 | 3980 | 3980 | 1620
Cc1nc2cc(S(=O)(=O)N(C)c3ccc([C@H]4C[C@@H](OCC5CC6CCC(C5)O6)C[C@@H](C(=O)Nc5ccc(C(F)(F)F)cc5F)[C@@H]4C(=O)O)cc3)ccc2n1C (single isomer, unassigned) [Example 360] | 0.0942 | 5.01 | 63.1 | 63.1 | 5.89
CN(c1ccc([C@H]2CCC[C@@H](C(=O)Nc3ccc(C(F)(F)F)cc3F)[C@@H]2C(=O)O)cc1)S(=O)(=O)c1cccc(C2CCNCC2)c1 [Example 261, (1R,2R,6S)-2-((2-fluoro-4-(trifluoromethyl)phenyl)carbamoyl)-6-(4-((N-methyl-3-(piperidin-4-yl)phenyl)sulfonamido)phenyl)cyclohexane-1-carboxylic acid] | 0.311 | 1.58 | 1000 | 1000 | 309
Cc1nc2cc(S(=O)(=O)N(C)c3ccc([C@H]4CCC[C@@H](C(=O)Nc5ccc(C(F)(F)F)nc5)[C@@H]4C(=O)O)cc3)ccc2n1C [Example 172, (1R,2R,6S)-2-((6-(trifluoromethyl)pyridin-3-yl)carbamoyl)-6-(4-((N,1,2-trimethyl-1H-benzo[d]imidazole)-5-sulfonamido)phenyl)cyclohexane-1-carboxylic acid] | 0.176 | 3.98 | 1260 | 1260 | 219
Cc1nc2cc(S(=O)(=O)N(C)c3ccc([C@@H]4C[C@H](N5CC[C@@H](F)C5)C[C@H](C(=O)Nc5ccc(C(F)(F)F)cc5F)[C@H]4C(=O)O)cc3)ccc2n1C (stereo in doubt) [Example 381, rel-(1R*,2R*,4R*,6S*)-2-((2-fluoro-4-(trifluoromethyl)phenyl)carbamoyl)-4-((R)-3-fluoropyrrolidin-1-yl)-6-(4-((N,1,2-trimethyl-1H-benzo[d]imidazole)-5-sulfonamido)phenyl)cyclohexane-1-carboxylic acid] | 0.308 | 79.4 | 7940 | 7940 | 2450
Cc1nc2cc(S(=O)(=O)N(C)c3ccc([C@H]4C[C@@H](OC[C@@H]5COCCO5)C[C@@H](C(=O)Nc5ccc(C(F)(F)F)cc5F)[C@@H]4C(=O)O)cc3)ccc2n1C (stereo in doubt) [Example 329, (1R*,2R*,4R*,6S*)-4-(((S)-1,4-dioxan-2-yl)methoxy)-2-((2-fluoro-4-(trifluoromethyl)phenyl)carbamoyl)-6-(4-((N,1,2-trimethyl-1H-benzo[d]imidazole)-5-sulfonamido)phenyl)cyclohexane-1-carboxylic acid] | 0.205 | 1.58 | 63.1 | 63.1 | 12.9
Cc1nnc(-c2cc([C@@H]3CCC[C@H](C(=O)Nc4ccc(C(F)(F)F)cc4F)[C@H]3C(=O)O)ccc2C(F)(F)F)o1 (single isomer, unassigned) [Example 245] | 0.0971 | 7.94 | 7940 | 7940 | 776
Cc1nc2cc(S(=O)(=O)N(C)c3ccc([C@H]4C[C@@H](OCC5(C)COC5)C[C@@H](C(=O)Nc5ccc(C(F)(F)F)cc5F)[C@@H]4C(=O)O)cc3)ccc2n1C (stereo in doubt) [Example 367, rel-(1R,2R,4R,6S)-2-((2-fluoro-4-(trifluoromethyl)phenyl)carbamoyl)-4-((3-methyloxetan-3-yl)methoxy)-6-(4-((N,1,2-trimethyl-1H-benzo[d]imidazole)-5-sulfonamido)phenyl)cyclohexane-1-carboxylic acid] | 0.145 | 1.58 | 79.4 | 79.4 | 11.5
Cc1nc2cc(S(=O)(=O)N(C)c3ccc([C@@H]4CCC[C@H](C(=O)Nc5ccc(C(F)(F)F)cn5)[C@H]4C(=O)O)cc3)ccc2n1C (relative stereo) [Example 168, rel-(1R,2R,6S)-2-((5-(trifluoromethyl)pyridin-2-yl)carbamoyl)-6-(4-((N,1,2-trimethyl-1H-benzo[d]imidazole)-5-sulfonamido)phenyl)cyclohexane-1-carboxylic acid] | 0.0585 | 2.51 | 631 | 631 | 37.2
Cc1nc2cc(S(=O)(=O)N(C)c3ccc([C@H]4CCC[C@@H](C(=O)Nc5ccc(C(C)C)cc5)[C@@H]4C(=O)O)cc3)ccc2n1C [Example 396, (1R,2R,6S)-2-((4-isopropylphenyl)carbamoyl)-6-(4-((N,1,2-trimethyl-1H-benzo[d]imidazole)-5-sulfonamido)phenyl)cyclohexane-1-carboxylic acid] | 0.0717 | 1.58 | 631 | 631 | 45.7
CN(c1ccc([C@H]2CCC[C@@H](C(=O)Nc3ccc(C(F)(F)F)cc3F)[C@@H]2C(=O)O)cc1)S(=O)(=O)c1cccc([C@H]2CCCNC2)c1 [Example 263] | 0.278 | 1.58 | 200 | 200 | 55
